Conditions: Meth-A cancer bearing BALB/c mouse, 100 μl of 2 mg/ml in PBS via tail vein, organs collected after 1 hour
Experimental: (i) Preparation of a cancer bearing mouse Meth-A cells cultured in abdominal cavity of a BALB/c mouse were harvested by administrating 50 ml saline to the mouse. The cells were collected by centrifugation and resuspended in PBS (50 ml). The cells were counted and prepared at 2.0×10^7/ml. 100 μl of the solution containing the cells was subcutaneously injected to a left foot of another BALE/c mouse. […] After 1 hour, the mouse was dissected and the necessary organs (blood (200 μl), liver, kidney, cancer) were collected into microtubes. 1× Lysis buffer (500 μl) was added to each of the tubes and the organs were mashed by using beads. The microtubes were centrifuged (14,000 rpm, 30 min) for the debris to be precipitated and the supernatants were collected and subjected to multiple resonance measurement utilizing magnetic coherence transfer between three elements of ^1H—^13C—^15N.

[13CH3][15N+]([13CH3])([13CH3])CCO [^13C3—^15N-choline chloride]
signals derived from methyl groups of cholines (triple resonance NMR, 3.0 ppm) in cancer (cancer tissue lysate supernatant): detected | signals derived from methyl groups of cholines (triple resonance NMR, 3.0 ppm) in kidney (kidney lysate supernatant): detected

Reference: US20100247444A1, “COMPOUND, […], NUCLEAR […] RESONANCE […] METHOD, NUCLEAR […] RESONANCE IMAGING METHOD, MASS SP[…] AND MASS SP[…] METHOD” (KYOTO UNIVERSITY, priority 2007, published 2010)
